Measured values from BindingDB's records for doi:10.1093/toxsci/47.2.181 (University of Texas M. D. Anderson Cancer Center, 1999).

Target: T1, Solute carrier family 22 member 2 (Rattus norvegicus, UniProt Q9R0W2)
T1 sequence (Q9R0W2 whole entry): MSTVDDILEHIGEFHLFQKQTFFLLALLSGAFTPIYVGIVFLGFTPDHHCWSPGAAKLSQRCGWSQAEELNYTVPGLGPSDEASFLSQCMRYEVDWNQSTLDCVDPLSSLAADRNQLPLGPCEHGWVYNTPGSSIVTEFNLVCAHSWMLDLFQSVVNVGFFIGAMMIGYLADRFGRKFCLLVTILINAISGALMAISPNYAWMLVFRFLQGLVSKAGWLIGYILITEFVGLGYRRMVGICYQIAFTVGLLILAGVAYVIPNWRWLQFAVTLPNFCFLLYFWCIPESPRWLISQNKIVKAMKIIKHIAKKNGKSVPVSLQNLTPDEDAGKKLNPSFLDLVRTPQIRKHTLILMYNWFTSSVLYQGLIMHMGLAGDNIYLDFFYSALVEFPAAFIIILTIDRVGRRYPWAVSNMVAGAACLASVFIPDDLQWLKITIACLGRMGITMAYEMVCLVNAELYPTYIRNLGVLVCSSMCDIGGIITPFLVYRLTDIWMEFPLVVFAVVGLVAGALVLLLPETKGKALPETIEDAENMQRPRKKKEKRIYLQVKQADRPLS
Experiment: TP_TRANSPORTER: inhibition of TEA uptake (apical to cell) in OCT2-expressing NIH3T3 cells

`[NH2][Pt]([NH2])([Cl])[Cl]` [cis-Platinum diamminedichloride] gave a Ki of 925 µM.
